# Assay results reported in patent US20240335541A1, “NANOMATERIALS COMPRISING DIAMINES” (Beam Therapeutics Inc., priority 2021, published 2024).
# Columns and labels:
# [1] = LNP encapsulation efficiency, unlysed vs lysed LNPs, Qubit kit (Example 1 LNPs); type: physicochemical; details: LNPs prepared according to Example 1; total lipid to NA mass ratio 11.7
# Procedure: Concentration of NA was determined by Qubit microRNA kit (for siRNA) or HS RNA kit (for mRNA) per manufacturer's instructions. Encapsulation efficiency was determined by measuring nucleic acid concentration in unlysed and lysed LNPs. Encapsulation efficiency was determined by measuring unlysed and lysed LNPs.
# [2] = LNP hydrodynamic diameter and polydispersity by DLS (Example 1 LNPs); type: physicochemical; details: LNPs prepared according to Example 1, total lipid to NA mass ratio 11.7
# Procedure: LNPs were prepared with a total lipid to NA mass ratio of 11.7. LNPs were formed by microfluidic mixing of the lipid and NA solutions using a Precision Nanosystems NanoAssemblr Spark or Benchtop series Instruments, according to the manufacturers protocol. A ratio of aqueous to organic solvent of approximately 2:1 or 3:1 was maintained during mixing using differential flow rates. After mixing, LNPs were collected, diluted in PBS (approximately 1:1 v/v). Further buffer exchange was conducted using dialysis in PBS at 4° C. for 4 to 24 hours against a 20 kDa filter. After this initial dialysis, each individual LNP preparation was characterized via dynamic light scattering (DLS) to measure the size (e.g., diameter) and polydispersity. In addition, pKa of a subpopulation of LNPs was measured via a 2-(p-toluidino)-6-napthalene sulfonic acid (TNS) assay. LNPs falling within specific diameter and polydispersity ranges are pooled, and further dialyzed against phosphate buffer saline (PBS) at 4° C. for 1 to 4 hours against a 100 kDa dialysis cassette. After the second dialysis, LNPs were sterile filtered using […] filter and stored at 4° C. for further use.
# DLS-LNP hydrodynamic diameter and polydispersity index (PDI) were measured using high throughput dynamic light scattering (DLS) (DynaPro plate reader II, Wyatt). LNPs were diluted 1×PBS to an appropriate concentration and analyzed.
# Lipid nanoparticle components were dissolved in 100% ethanol at specified lipid component molar ratios. Nucleic acid (NA) cargo was dissolved in 10 mM citrate, 100 mM NaCl, pH 4.0, resulting in a concentration of NA cargo of approximately 0.22 mg/mL. In some embodiments, NA cargos included both a functional NA and a reporter DNA barcode mixed at mass ratios of 1:10 to 10:1 functional NA to barcode. LNPs were formulated with a total lipid to NA mass ratio of 11.7. LNPs were formed by microfluidic mixing of the lipid and NA solutions using a Precision Nanosystems NanoAssemblr Spark or Benchtop series Instruments, according to the manufacturer's protocol. A 2:1 or 3:1 ratio of aqueous to organic solvent was maintained during mixing using differential flow rates. After mixing, LNPs were collected, diluted in PBS (approximately 1:1 v/v), and further buffer exchange was conducted using dialysis in PBS at 4° C. for 8 to 24 hours against a 20 kDa filter. After this initial dialysis, each individual LNP formulation was characterized via DLS to measure the size and polydispersity, and the pKa of a subpopulation of LNPs is measured via TNS assay. After dialysis, LNPs were sterile filtered using 0.22 micron sterile filter and stored at 4° C. for further use.
# LNP hydrodynamic diameter and polydispersity index (PDI) were measured using high throughput dynamic light scattering (DLS) (DynaPro plate reader II, Wyatt). LNPs were diluted 1×PBS to an appropriate concentration and analyzed.
# human ALAS1 target site = assay: In vivo base editing with LNP carrying adenine base editor mRNA and sgRNA, targeted deep sequencing; details: 3.0 mg/kg dose IV; NBSGW mice engrafted with human CD34+ cells; four to six days post-dose
# Procedure: Exemplary LNP preparations were selected to determine each preparation's ability to perform base editing in a NBSGW mouse model as described herein.
# Lipid nanoparticle components were dissolved in 100% ethanol at specified lipid component molar ratios. mRNA encoding an adenine base editor and a chemically-modified sgRNA were dissolved at a mass ratio of 1:1 in 10 mM citrate, pH 3.0, resulting in a concentration of NA cargo of approximately 0.2 mg/mL.
# LNP preparations were formulated with molar ratios of 50% Ionizable Lipid: 38.5% Cholesterol: 1.5% PEG2000-DMG: 10% DSPC total lipid to NA mass ratio of 19 to 1.
# LNP preparations were formed by microfluidic mixing of the lipid and NA solutions using a Precision Nanosystems NanoAssemblr Spark series Instruments, according to the manufacturer's protocol.
# A 3:1 ratio of aqueous to organic solvent was maintained during mixing using differential flow rates. […] After this initial dialysis, each individual LNP preparation was characterized via dynamic light scattering (DLS) to measure size and polydispersity. pKa of a subpopulation of LNP preparations was measured via TNS assay. […]
# Age-matched mice were also used to administer vehicle (1×PBS) via tail vein injection as a control. […] Base editing was determined by performing targeted deep sequencing analysis at the human ALAS1 target site using extracted genomic DNA. […]
# [3] = LNP hydrodynamic diameter and PDI by DLS (Example 16 LNPs, Stunner); type: physicochemical; details: Example 16 LNPs: 47.5% Ionizable Lipid: 40% cholesterol: 2.5% PEG-2000 DMG: 10% DPSC, N/P 4-8
# Procedure: (§1) LNPs were prepared with 47.5% Ionizable Lipid (e.g., a compound provided herein): 40% cholesterol: 2.5% PEG-2000 DMG: 10% DPSC and an N/P ratio range of 4-8. LNPs were formed by microfluidic mixing of the lipid and NA solutions using a Precision Nanosystems NanoAssemblr Spark or Benchtop series Instruments, according to the manufacturer's protocol. A ratio of aqueous to organic solvent of approximately 2:1 or 3:1 was maintained during mixing using differential flow rates. After mixing, LNPs were collected, diluted in phosphate buffer saline (PBS) or Tris-buffered saline (TBS) (approximately 1:1 v/v). Further buffer exchange was conducted using dialysis in PBS or TBS at 4° C. for 4 to 24 hours against a 20 kDa filter. After this initial dialysis, each individual LNP preparation was characterized via dynamic light scattering (DLS) to measure the size (e.g., diameter) and polydispersity. LNPs falling within specific diameter and polydispersity ranges were pooled, and further dialyzed against PBS or TBS at 4° C. for 1 to 4 hours against a 100 kDa dialysis cassette. After the second dialysis, LNPs were sterile filtered using 0.22 μm filter and stored at 4° C. for further use.
# LNP hydrodynamic diameter and polydispersity index (PDI) were measured using high throughput dynamic light scattering (DLS) (Stunner, Unchained Labs). LNPs were diluted 1×TBS or PBS to an appropriate concentration and analyzed.
# [4] = LNP encapsulation efficiency by Ribogreen assay (Example 16 LNPs); type: physicochemical; details: Example 16 LNPs: 47.5% Ionizable Lipid: 40% cholesterol: 2.5% PEG-2000 DMG: 10% DPSC, N/P 4-8
# Procedure: as §1
# RNA concentration and encapsulation efficiency were determined by Ribogreen assay (BioTek Synergy LX plate reader).
Structure (SMILES),Mean Encapsulation Efficiency [1],Mean Diameter [2],Mean PDI [2],Mean Diameter [3],Mean PDI [3],Mean Encapsulation Efficiency [4],base editing in bulk bone marrow (human ALAS1 target site)
CC/C=C\CCCCOC(CCC(=O)OCCCCCCCN(CCO)CCCN(CCCCCCCOC(=O)CCC(OCCCC/C=C\CC)OCCCC/C=C\CC)CCCCCCCOC(=O)CCC(OCCCC/C=C\CC)OCCCC/C=C\CC)OCCCC/C=C\CC [Example 7-2],96.8%,96.1 nm,10.9%,–,–,–,2.2%
CC/C=C\CCCCOC(CCC(=O)OCCCCCCN(CCO)CCCN(CCCCCCCCCOC(=O)C(CCCC)CCCCCC)CCCCCCCCCOC(=O)C(CCCC)CCCCCC)OCCCC/C=C\CC (stereo not shown) [Example 7-8],85.4%,165.2 nm,19.3%,91.0 nm,0.11,61.1%,–
"CC/C=C\CCCCOC(CCC(=O)OCCCCCCN(CCCCCCOC(=O)CCC(OCCCC/C=C\CC)OCCCC/C=C\CC)CCN(CCO)CCCCCCCC(=O)OCCCCCCCCC)OCCCC/C=C\CC [Example 7-12, ((2-((2-hydroxyethyl)(8-(nonyloxy)-8-oxooctyl)amino)ethyl)azanediyl)bis(hexane-6,1-diyl) bis(4,4-bis(((Z)-oct-5-en-1-yl)oxy)butanoate)]",94.7%,89.3 nm,14.9%,74.4 nm,0.11,76.5%,–
CC/C=C\CCCCOC(CCC(=O)OCCCCCCN(CCO)CCN(CCCCCCCCCOC(=O)C(CCCC)CCCCCC)CCCCCCCCCOC(=O)C(CCCC)CCCCCC)OCCCC/C=C\CC (stereo not shown) [Example 7-15],95.6%,77.9 nm,9.2%,77.3 nm,0.10,70.1%,–

# Continued, in another order:
Mean Encapsulation Efficiency [1],Mean Diameter [2],Mean PDI [2],Mean Diameter [3],Mean PDI [3],Mean Encapsulation Efficiency [4],Structure (SMILES),base editing in bulk bone marrow (human ALAS1 target site)
95.9%,93.7 nm,14.3%,86.2 nm,0.10,75.4%,"CC/C=C\CCCCOC(CCC(=O)OCCCCCCCN(CCCCCCCOC(=O)CCC(OCCCC/C=C\CC)OCCCC/C=C\CC)CCN(CCO)CCCCCCCC(=O)OCCCCCCCCC)OCCCC/C=C\CC [Example 7-13, ((2-((2-hydroxyethyl)(8-(nonyloxy)-8-oxooctyl)amino)ethyl)azanediyl)bis(heptane-7,1-diyl) bis(4,4-bis(((Z)-oct-5-en-1-yl)oxy)butanoate)]",–
92.9%,100.8 nm,13.2%,90.6 nm,0.13,70.0%,"CC/C=C\CCCCOC(CCC(=O)OCCCCCCCN(CCCCCCCOC(=O)CCC(OCCCC/C=C\CC)OCCCC/C=C\CC)CCN(CCCO)CCCCCCCC(=O)OCCCCCCCCC)OCCCC/C=C\CC [Example 7-19, ((2-((3-hydroxypropyl)(8-(nonyloxy)-8-oxooctyl)amino)ethyl)azanediyl)bis(heptane-7,1-diyl) bis(4,4-bis(((Z)-oct-5-en-1-yl)oxy)butanoate)]",–
